In ChEMBL document CHEMBL2434921, “New synthetic aliphatic sulfonamido-quaternary ammonium salts as anticancer chemotherapeutic agents” (2013):
Calls of active or inactive are those of the source. The rule behind the calls is not given here.

What was measured:
[1] = test system: NCI-H23; test: Growth inhibition of human NCI-H23 cells after 48 hrs by SRB assay; format: functional; settings: NCI-H23, 48 h
[2] = test system: HCT-15; test: Growth inhibition of human HCT15 cells after 48 hrs by SRB assay; format: functional; settings: HCT-15, 48 h
[3] = target: Rho-related GTP-binding protein RhoB (Homo sapiens) (UniProt P62745); test: Transactivation of RhoB (unknown origin) transfected in human HeLa cells at 5 uM measured over 10 secs by dual luciferase reporter gene assay; format: cell-based
[4] = test system: NUGC-3; test: Growth inhibition of human NUGC3 cells after 48 hrs by SRB assay; format: functional; settings: NUGC-3, 48 h
[5] = test system: ACHN; test: Growth inhibition of human ACHN cells after 48 hrs by SRB assay; format: functional
[6] = test system: MDA-MB-231; test: Growth inhibition of human MDA-MB-231 cells after 48 hrs by SRB assay; format: functional; settings: MDA-MB-231, 48 h
[7] = test system: PC-3; test: Growth inhibition of human PC3 cells after 48 hrs by SRB assay; format: functional; settings: PC-3, 48 h
[8] = test system: PC-3; test: Growth of human PC3 cells at 10 uM after 48 hrs by SRB assay; settings: PC-3, 48 h
[9] = test system: NUGC-3; test: Growth of human NUGC3 cells at 1 uM after 48 hrs by SRB assay; settings: NUGC-3, 48 h
[10] = test system: ACHN; test: Growth of human ACHN cells at 10 uM after 48 hrs by SRB assay
[11] = test system: HCT-15; test: Growth of human HCT15 cells at 3 uM after 48 hrs by SRB assay; settings: HCT-15, 48 h
[12] = test system: ACHN; test: Growth of human ACHN cells at 0.1 uM after 48 hrs by SRB assay
[13] = test system: ACHN; test: Growth of human ACHN cells at 0.3 uM after 48 hrs by SRB assay
[14] = test system: NUGC-3; test: Growth of human NUGC3 cells at 0.1 uM after 48 hrs by SRB assay; settings: NUGC-3, 48 h
[15] = test system: NUGC-3; test: Growth of human NUGC3 cells at 0.3 uM after 48 hrs by SRB assay; settings: NUGC-3, 48 h
[16] = test system: HCT-15; test: Growth of human HCT15 cells at 0.3 uM after 48 hrs by SRB assay; settings: HCT-15, 48 h
[17] = test system: NCI-H23; test: Growth of human NCI-H23 cells at 10 uM after 48 hrs by SRB assay; settings: NCI-H23, 48 h
[18] = test system: NCI-H23; test: Growth of human NCI-H23 cells at 0.3 uM after 48 hrs by SRB assay; settings: NCI-H23, 48 h
[19] = test system: MDA-MB-231; test: Growth of human MDA-MB-231 cells at 1 uM after 48 hrs by SRB assay; settings: MDA-MB-231, 48 h
[20] = test system: MDA-MB-231; test: Growth of human MDA-MB-231 cells at 10 uM after 48 hrs by SRB assay; settings: MDA-MB-231, 48 h
[21] = test system: MDA-MB-231; test: Growth of human MDA-MB-231 cells at 0.1 uM after 48 hrs by SRB assay; settings: MDA-MB-231, 48 h
[22] = test system: MDA-MB-231; test: Growth of human MDA-MB-231 cells at 3 uM after 48 hrs by SRB assay; values are per cent of control; settings: MDA-MB-231, 48 h
[23] = test system: PC-3; test: Growth inhibition of human PC3 cells at 1 uM after 48 hrs by SRB assay; values are per cent of control; settings: PC-3, 48 h
[24] = test system: PC-3; test: Growth inhibition of human PC3 cells at 3 uM after 48 hrs by SRB assay; values are per cent of control; settings: PC-3, 48 h
[25] = test system: ACHN; test: Growth inhibition of human ACHN cells at 3 uM after 48 hrs by SRB assay; values are per cent of control
[26] = test system: ACHN; test: Growth inhibition of human ACHN cells at 1 uM after 48 hrs by SRB assay; values are per cent of control
[27] = test system: NUGC-3; test: Growth inhibition of human NUGC3 cells at 3 uM after 48 hrs by SRB assay; values are per cent of control; settings: NUGC-3, 48 h
[28] = test system: PC-3; test: Growth inhibition of human PC3 cells at 0.1 uM after 48 hrs by SRB assay; values are per cent of control; settings: PC-3, 48 h
[29] = test system: PC-3; test: Growth inhibition of human PC3 cells at 0.3 uM after 48 hrs by SRB assay; values are per cent of control; settings: PC-3, 48 h
[30] = test system: HCT-15; test: Growth inhibition of human HCT15 cells at 1 uM after 48 hrs by SRB assay; values are per cent of control; settings: HCT-15, 48 h
[31] = test system: NUGC-3; test: Growth inhibition of human NUGC3 cells at 10 uM after 48 hrs by SRB assay; values are per cent of control; settings: NUGC-3, 48 h
[32] = test system: HCT-15; test: Growth inhibition of human HCT15 cells at 10 uM after 48 hrs by SRB assay; values are per cent of control; settings: HCT-15, 48 h
[33] = test system: NCI-H23; test: Growth inhibition of human NCI-H23 cells at 1 uM after 48 hrs by SRB assay; values are per cent of control; settings: NCI-H23, 48 h
[34] = test system: NCI-H23; test: Growth inhibition of human NCI-H23 cells at 3 uM after 48 hrs by SRB assay; values are per cent of control; settings: NCI-H23, 48 h
[35] = test system: HCT-15; test: Growth inhibition of human HCT15 cells at 0.1 uM after 48 hrs by SRB assay; values are per cent of control; settings: HCT-15, 48 h
[36] = test system: NCI-H23; test: Growth inhibition of human NCI-H23 cells at 0.1 uM after 48 hrs by SRB assay; values are per cent of control; settings: NCI-H23, 48 h
[37] = test system: MDA-MB-231; test: Growth inhibition of human MDA-MB-231 cells at 0.3 uM after 48 hrs by SRB assay; values are per cent of control; settings: MDA-MB-231, 48 h

Chain of Rho-related GTP-binding protein RhoB (Homo sapiens) (P62745 whole entry): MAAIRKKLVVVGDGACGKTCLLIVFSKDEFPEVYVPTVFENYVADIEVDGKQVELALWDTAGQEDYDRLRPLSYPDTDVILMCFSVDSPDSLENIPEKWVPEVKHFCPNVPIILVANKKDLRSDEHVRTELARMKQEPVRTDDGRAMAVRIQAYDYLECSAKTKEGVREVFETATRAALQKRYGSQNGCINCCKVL

| Structure (SMILES) | GI50 [1] | GI50 [2] | Activity [3] | GI50 [4] | GI50 [5] | GI50 [6] | GI50 [7] | growth, % of control at 10 µM [8] | growth, % of control at 1 µM [9] | growth, % of control at 10 µM [10] | growth, % of control at 3 µM [11] | growth, % of control at 0.1 µM [12] | growth, % of control at 0.3 µM [13] | growth, % of control at 0.1 µM [14] | growth, % of control at 0.3 µM [15] | growth, % of control at 0.3 µM [16] | growth, % of control at 10 µM [17] | growth, % of control at 0.3 µM [18] | growth, % of control at 1 µM [19] | growth, % of control at 10 µM [20] | further results |
| --- | --- | --- | --- | --- | --- | --- | --- | --- | --- | --- | --- | --- | --- | --- | --- | --- | --- | --- | --- | --- | --- |
| CCCCCCCCCCCCCCCCS(=O)(=O)N(C)CCC[N+](C)(C)CC | 430 nM | 780 nM | Active | 200 nM | 950 nM | 690 nM | 360 nM | -28.9% | 16.9% | 1.6% | 30.5% | 102% | 92.1% | 76.9% | 63.4% | 87.4% | -22.7% | 73.1% | 54.4% | 0% | growth, % of control at 0.1 µM [21]: 94.8%; growth, % of control at 3 µM [22]: 27.3%; growth, % of control at 1 µM [23]: 25%; growth, % of control at 3 µM [24]: -17.9%; growth, % of control at 3 µM [25]: 35.6%; growth, % of control at 1 µM [26]: 64.5%; growth, % of control at 3 µM [27]: -14.1%; growth, % of control at 0.1 µM [28]: 91.6%; growth, % of control at 0.3 µM [29]: 88.2%; growth, % of control at 1 µM [30]: 56.5%; growth, % of control at 10 µM [31]: -27.9%; growth, % of control at 10 µM [32]: 15.7%; growth, % of control at 1 µM [33]: 58.8%; growth, % of control at 3 µM [34]: 14.8%; growth, % of control at 0.1 µM [35]: 85.4%; growth, % of control at 0.1 µM [36]: 70.4%; growth, % of control at 0.3 µM [37]: 89.2% |
| C=CC[N+](CC)(CC)CCN(C)S(=O)(=O)CCCCCCCCCCCCCC | 300 nM | 2030 nM | Active | 210 nM | 1350 nM | 710 nM | 530 nM | 4.6% | 14.3% | 20.3% | 62.9% | 92.8% | 90.5% | 79.1% | 70.5% | 93.9% | -5.7% | 76.5% | 54.3% | 14.5% | growth, % of control at 0.1 µM [21]: 89.6%; growth, % of control at 3 µM [22]: 32.2%; growth, % of control at 1 µM [23]: 46.2%; growth, % of control at 3 µM [24]: 22.7%; growth, % of control at 3 µM [25]: 46.6%; growth, % of control at 1 µM [26]: 73.4%; growth, % of control at 3 µM [27]: -2.9%; growth, % of control at 0.1 µM [28]: 91.5%; growth, % of control at 0.3 µM [29]: 89.8%; growth, % of control at 1 µM [30]: 85.1%; growth, % of control at 10 µM [31]: -6.4%; growth, % of control at 10 µM [32]: 19.2%; growth, % of control at 1 µM [33]: 31.1%; growth, % of control at 3 µM [34]: 10%; growth, % of control at 0.1 µM [35]: 91.8%; growth, % of control at 0.1 µM [36]: 82.2%; growth, % of control at 0.3 µM [37]: 87.4% |
| C=CC[N+](C)(C)CCN(C)S(=O)(=O)CCCCCCCCCCCCCC | 730 nM | 1710 nM | Active | 830 nM | 1390 nM | 1800 nM | 460 nM | -22.9% | 73% | -36.7% | 49.9% | 92.6% | 101% | 91.6% | 97.1% | 91.6% | -9.2% | 80.4% | 99.4% | 20.2% | growth, % of control at 0.1 µM [21]: 88%; growth, % of control at 3 µM [22]: 49.7%; growth, % of control at 1 µM [23]: 48.6%; growth, % of control at 3 µM [24]: 8.4%; growth, % of control at 3 µM [25]: 45.7%; growth, % of control at 1 µM [26]: 80.3%; growth, % of control at 3 µM [27]: 19.3%; growth, % of control at 0.1 µM [28]: 86.7%; growth, % of control at 0.3 µM [29]: 83%; growth, % of control at 1 µM [30]: 81.8%; growth, % of control at 10 µM [31]: -8.4%; growth, % of control at 10 µM [32]: 22.6%; growth, % of control at 1 µM [33]: 70.8%; growth, % of control at 3 µM [34]: 24%; growth, % of control at 0.1 µM [35]: 90.5%; growth, % of control at 0.1 µM [36]: 78.2%; growth, % of control at 0.3 µM [37]: 107% |
